Assay results: the supplement of paper PMC8671470

Legend:
Assay in all cases: cell viability (% survival relative to DMSO control); higher = less cytotoxic
Details in all cases: 72 h
[1] = tested on: myeloid leukemia patient primary cells Pat.15
In short: (§1)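 Mononuclear cells from patients with AML or CML were thawed, purified on Ficoll and placed in RPMI 1640 with 10% FBS at 10,000 cells/well on 384-well plates. The plates came pre-printed with 70 compounds at five tenfold concentrations spanning 1–10,000 nM, in duplicate, and cells were exposed for 72 h. CellTiter-Glo gave viability, scaled between DMSO wells and wells with 10 μM proteasome inhibitor. Where reported, area under the curve was obtained from log-logistic fits with four parameters using the drc and PharmacoGx R packages.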

[2] = tested on: myeloid leukemia patient primary cells Pat.12
In short: as §1

[3] = tested on: myeloid leukemia patient primary cells Pat.11
In short: as §1

[4] = tested on: myeloid leukemia patient primary cells Pat.7
In short: as §1

Compound	cell viability ([1]; 1 nM) [%]	cell viability ([1]; 10 nM) [%]	cell viability ([1]; 100 nM) [%]	cell viability ([1]; 1000 nM) [%]	cell viability ([1]; 10000 nM) [%]	cell viability ([2]; 1 nM) [%]	cell viability ([2]; 10 nM) [%]	cell viability ([2]; 100 nM) [%]	cell viability ([2]; 1000 nM) [%]	cell viability ([2]; 10000 nM) [%]	cell viability ([3]; 1 nM) [%]	cell viability ([3]; 10 nM) [%]	cell viability ([3]; 100 nM) [%]	cell viability ([3]; 1000 nM) [%]	cell viability ([3]; 10000 nM) [%]	cell viability ([4]; 1 nM) [%]	cell viability ([4]; 10 nM) [%]	cell viability ([4]; 100 nM) [%]	cell viability ([4]; 1000 nM) [%]	cell viability ([4]; 10000 nM) [%]
CCOC(=O)N1c2ccc(C(F)(F)F)cc2[C@@H](N(Cc2cc(C(F)(F)F)cc(C(F)(F)F)c2)C(=O)OC)C[C@H]1CC [Torcetrapib]	98.5	86	97.7	87.1	75.8	93.2	82.7	94.3	89.7	79	96.7	85.1	99.1	> 100	97.5	84.5	58.4	> 100	50.5	30
CC(Cc1ccc(O)c(O)c1)C(C)Cc1ccc(O)c(O)c1 (stereo not given) [Masoprocol]	89	93.8	94.4	80.9	31.1	91.2	96.6	98.3	89	35.1	94.1	> 100	98.8	89.9	80	> 100	85.3	89	31.9	2.01
Nc1ccn([C@@H]2O[C@H](CO)[C@@H](O)[C@@H]2O)c(=O)n1 [Cytarabine]	94.5	86.4	99.6	81	32.8	96.3	94.1	> 100	97.1	67.7	95.7	93.6	> 100	89.3	41.1	> 100	50.7	59.9	12.8	4.95
Clc1ccc(COC(Cn2ccnc2)c2ccc(Cl)cc2Cl)cc1 (stereo not given) [Econazole]	84.3	92.6	98.3	89.4	68.7	89.2	94.9	95.7	96.5	90.3	89.9	92.9	99.9	88.6	73.3	72.2	> 100	93	63.4	< 0
Sc1ncnc2nc[nH]c12 [6-mercaptopurine]	99.2	> 100	98.5	94.3	98.3	> 100	95.9	93.6	97.3	> 100	> 100	98.2	97.6	97.9	98.1	> 100	78.2	66.1	93.3	88.8
C[C@]12O[C@H](C[C@]1(O)CO)n1c3ccccc3c3c4c(c5c6ccccc6n2c5c31)CNC4=O [Lestaurtinib]	97.1	61.3	43.7	2.83	0.259	> 100	> 100	87	> 100	1.77	96.4	74.7	41.8	56.9	1.92	88.3	62.3	> 100	63.1	< 0
C[C@H]1O[C@@H](O[C@H]2[C@@H](O)C[C@H](O[C@H]3[C@@H](O)C[C@H](O[C@H]4CC[C@@]5(C)[C@H](CC[C@@H]6[C@@H]5C[C@@H](O)[C@]5(C)[C@@H](C7=CC(=O)OC7)CC[C@]65O)C4)O[C@@H]3C)O[C@@H]2C)C[C@H](O)[C@@H]1O [Digoxin]	98.4	98.4	50.6	1.74	1.52	94.2	95	85.5	41.7	12.6	> 100	97.6	48.8	12.4	7.54	76.9	86.8	69	89	> 100
COc1c(C)c2c(c(O)c1C/C=C(\C)CCC(=O)O)C(=O)OC2 [Mycophenolic acid]	91.6	94.3	86.7	> 100	84.3	> 100	> 100	85.9	> 100	80.5	88.3	> 100	91	> 100	78.1	52.5	94.8	56.3	> 100	99.3
Cc1noc2c1-c1ccccc1C(c1ccc(Cl)cc1)=N[C@H]2CC(N)=O [CPI-0610]	95.1	94.6	76.1	3.36	1.08	96.7	90.2	98.4	82.8	80.9	> 100	93	93.6	54.3	51.8	> 100	97.1	84.1	60.5	58
CCN(CC)CCN(Cc1ccc(-c2ccc(C(F)(F)F)cc2)cc1)C(=O)Cn1c(SCc2ccc(F)cc2)nc(=O)c2c1CCC2 [Darapladib]	82.5	> 100	85.8	96	0.433	94.6	97.5	85.3	92.2	< 0	87.2	98.3	85.3	88.2	0.357	63.7	74.4	40.1	5.93	< 0
CC12CCC(O)CC1CCC1C2CCC2(C)C(C3=CC(=O)OC3)CCC12O (stereo not given) [Digitoxigenin]	> 100	92.9	97.5	8.87	2.72	97.4	96	94.2	58.7	16.8	99.8	94.1	94.8	31.9	9.33	94.8	91.8	67.9	> 100	> 100
